Assay results published in patent US20240082268A1, “METHODS AND COMPOSITIONS FOR CONTROLLING NEUROINFLAMMATION” (Invenux, LLC, priority 2021, published 2024).

Legend:
[1] = tested on: CD68 (microglia activation); assay: CD68 immunoreactivity in brain slices, mouse model of MPS IIIB; assay type: in vivo
Method: (§1) Brain slices were taken along the rostro caudal axis in a serial section. Quantification using the brain slices was performed using Image Pro Premiere software.
(§2) The breeding pairs of MPS IIIB mice were obtained from Jackson Laboratory (JAX stock #003827) and a MPS IIIB mouse colony was established. In MPS IIIB or Sanfillipo syndrome mice, both alleles of alpha-N-acetylglucosaminidase (NAGLU) are disrupted, knocked out (KO), by insertion of a neomycin resistance gene via homologous recombination. Gografe S I; Garbuzova-Davis S; Willing A E; Haas K; Chamizo W; Sanberg P R. Mouse model of Sanfilippo syndrome type B: relation of phenotypic features to background strain Comp Med 53(6):622-32. […] The heterozygous (Het) mice have only one allele of the NAGLU gene disrupted and can fully metabolize HS.
(§3) FIG. 1A and FIG. 1B show bar graphs of the percentage staining of Cluster of Differentiation 68 (CD68) and glial fibrillary acidic protein (GFAP), respectively, in serial section (one every twelve sections of 40 um thick) along the rostrocaudal axis of the brain after 30 days. […]
(§4) Quantification of brain slices was performed using Image Pro Premiere software.
(§5) After 30 days, animals were sacrificed and brain slices were taken along the rostro caudal axis in a serial section. Quantification was performed using Image Pro Premiere software.

MPS IIIB KO mice = assay: Behavioral and cognitive tests in mouse model of MPS IIIB; assay type: in vivo; conditions: MPS IIIB KO mice, 100, 33 or 10 mg/kg/day oral, after 6 months, vs vehicle control
Method: CBD or vehicle is administered daily by oral gavage. […] At baseline, and after 3, 6, and 9 months, the mice are given behavioral tests to measure hyperactive and social interaction, and cognitive tests to measure spatial memory and learning deficits.

[2] = target: voltage-gated sodium channel Nav 1.6 receptor (Homo sapiens, UniProt Q9UQD0); conditions: cited from earlier work
voltage-gated sodium channel Nav 1.6 receptor, sequence (Q9UQD0 whole entry): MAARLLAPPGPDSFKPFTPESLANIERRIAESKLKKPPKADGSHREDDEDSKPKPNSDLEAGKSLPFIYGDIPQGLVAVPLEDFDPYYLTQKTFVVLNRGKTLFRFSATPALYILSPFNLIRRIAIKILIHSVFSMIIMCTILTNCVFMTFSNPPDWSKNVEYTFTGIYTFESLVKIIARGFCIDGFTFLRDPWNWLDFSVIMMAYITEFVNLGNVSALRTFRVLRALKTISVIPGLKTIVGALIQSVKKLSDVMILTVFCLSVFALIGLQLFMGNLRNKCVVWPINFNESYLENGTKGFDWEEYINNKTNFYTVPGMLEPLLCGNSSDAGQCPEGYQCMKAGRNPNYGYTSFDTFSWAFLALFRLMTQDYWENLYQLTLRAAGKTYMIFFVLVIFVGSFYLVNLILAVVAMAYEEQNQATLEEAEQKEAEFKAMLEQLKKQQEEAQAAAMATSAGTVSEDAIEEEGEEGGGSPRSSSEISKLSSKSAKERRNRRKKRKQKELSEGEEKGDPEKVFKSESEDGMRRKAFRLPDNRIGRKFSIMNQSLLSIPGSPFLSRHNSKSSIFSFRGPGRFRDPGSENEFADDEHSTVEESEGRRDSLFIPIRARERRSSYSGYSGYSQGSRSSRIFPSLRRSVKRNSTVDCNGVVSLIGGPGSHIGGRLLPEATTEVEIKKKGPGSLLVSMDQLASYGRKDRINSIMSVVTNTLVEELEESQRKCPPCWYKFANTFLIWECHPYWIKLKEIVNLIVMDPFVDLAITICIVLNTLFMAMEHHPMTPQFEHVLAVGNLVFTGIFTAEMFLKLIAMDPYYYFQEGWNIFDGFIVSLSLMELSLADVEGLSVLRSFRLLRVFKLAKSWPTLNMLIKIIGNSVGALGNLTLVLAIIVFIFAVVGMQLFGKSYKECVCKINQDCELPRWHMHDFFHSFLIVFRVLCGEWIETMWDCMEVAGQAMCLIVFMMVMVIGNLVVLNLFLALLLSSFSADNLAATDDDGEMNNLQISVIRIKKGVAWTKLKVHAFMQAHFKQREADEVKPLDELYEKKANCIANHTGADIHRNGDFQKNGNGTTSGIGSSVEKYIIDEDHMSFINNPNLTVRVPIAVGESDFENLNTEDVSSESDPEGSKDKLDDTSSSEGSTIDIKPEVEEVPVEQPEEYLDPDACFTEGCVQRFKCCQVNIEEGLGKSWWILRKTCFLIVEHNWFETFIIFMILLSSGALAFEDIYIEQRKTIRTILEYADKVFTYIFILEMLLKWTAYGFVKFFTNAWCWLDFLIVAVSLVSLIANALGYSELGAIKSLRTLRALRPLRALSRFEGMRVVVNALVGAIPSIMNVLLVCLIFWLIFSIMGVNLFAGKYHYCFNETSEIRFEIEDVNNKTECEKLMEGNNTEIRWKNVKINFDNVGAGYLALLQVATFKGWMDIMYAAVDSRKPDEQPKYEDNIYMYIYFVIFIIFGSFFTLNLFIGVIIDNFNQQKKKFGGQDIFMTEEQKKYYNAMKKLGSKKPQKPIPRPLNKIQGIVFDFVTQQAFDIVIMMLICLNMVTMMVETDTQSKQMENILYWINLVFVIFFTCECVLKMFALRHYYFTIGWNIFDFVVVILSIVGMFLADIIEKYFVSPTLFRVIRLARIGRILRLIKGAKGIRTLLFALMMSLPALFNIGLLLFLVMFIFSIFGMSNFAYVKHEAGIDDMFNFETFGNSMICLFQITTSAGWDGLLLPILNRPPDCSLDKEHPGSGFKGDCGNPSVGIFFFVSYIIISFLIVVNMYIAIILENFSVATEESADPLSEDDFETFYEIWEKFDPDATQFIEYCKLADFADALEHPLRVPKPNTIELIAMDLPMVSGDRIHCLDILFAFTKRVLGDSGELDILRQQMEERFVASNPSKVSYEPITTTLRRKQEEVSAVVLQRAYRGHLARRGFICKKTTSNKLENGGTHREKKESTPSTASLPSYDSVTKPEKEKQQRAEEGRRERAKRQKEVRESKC

[3] = target: CB2 endocannabinoid receptor (Homo sapiens, UniProt P34972); conditions: cited from earlier work
CB2 endocannabinoid receptor, sequence (P34972 whole entry): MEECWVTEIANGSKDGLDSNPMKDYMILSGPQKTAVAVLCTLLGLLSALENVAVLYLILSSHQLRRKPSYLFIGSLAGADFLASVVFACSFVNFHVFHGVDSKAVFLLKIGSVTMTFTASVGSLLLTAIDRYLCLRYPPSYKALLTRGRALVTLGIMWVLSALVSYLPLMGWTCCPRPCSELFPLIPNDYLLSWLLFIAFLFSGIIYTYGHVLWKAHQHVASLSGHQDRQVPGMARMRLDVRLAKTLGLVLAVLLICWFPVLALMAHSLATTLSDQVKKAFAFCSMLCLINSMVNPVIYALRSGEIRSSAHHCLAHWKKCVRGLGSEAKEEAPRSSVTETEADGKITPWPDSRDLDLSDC

[4] = tested on: GFAP (astrocyte activation); assay: GFAP immunoreactivity in brain slices, mouse model of MPS IIIB; assay type: in vivo
Method: as §1, §2, §3, §4, §5

[5] = tested on: inflammatory signaling molecules; assay: Inflammatory signaling molecules in plasma and CSF, mouse model of MPS IIIB; assay type: in vivo; conditions: MPS IIIB KO mice, 100, 33 or 10 mg/kg/day oral, after 6 months, vs vehicle control
Description: In particular, less of one or more of IL-1alpha, IL1beta, IL-2, IL-4, IL-6, IL-8, 11-10, IL-17A, IL-23, INF-gamma, MCP-1, caspase-1, caspase-3, TNF-alpha, and TGF-beta-alpha is expected.

[6] = in vivo; cited from earlier work
[7] = 9-month old MPS IIIB KO mice, 100 mg/kg CBD in sesame oil, oral gavage once daily for 30 days, vs KO mice given vehicle
[8] = MPS IIIB KO mice, 100 mg/kg oral, 30 days, representative brain slices

Row | Molecule | decrease in the immunoreactivity of CD68 (% area) in brain [1, 7] [%] | microglia cell neuroinflammation and activation (CD68) [1, 8] | hyperactivity (MPS IIIB KO mice) | learning deficit (MPS IIIB KO mice) | social interaction (MPS IIIB KO mice) | spatial memory (MPS IIIB KO mice) | IC50 [2] [µM] | affinity to Nav 1.6 receptor [2] | affinity to CB2 receptor [3] | decrease in the immunoreactivity of GFAP (% area) in brain [4, 7] [%] | astrocyte cell neuroinflammation and activation (GFAP) [4, 8] | inflammatory signaling molecules in plasma and CSF [5] | crossing of the BBB [6]
1 | C=C(C)[C@@H]1CCC(C)=C[C@H]1c1c(O)cc(CCCCC)cc1O [CBD, Cannabidiol] | 30 | significantly decreases | less hyperactivity | less learning deficit | more social interaction | less loss of spatial memory | 1 to 6 | uM affinity | uM affinity | 50 | significantly decreases | less inflammatory signaling molecules | –
2 | Adalimumab | – | – | – | – | – | – | – | – | – | – | – | – | does not cross the BBB
